Source: PMC1933452, “Molecular Basis of Resistance to Muramidase and Cationic Antimicrobial Peptide Activity of Lysozyme in Staphylococci” (PLoS Pathogens, 2007)
Where “and” joins values, the source holds several entries; their conditions need not be identical. Identical values can stand only once. Like-named read-outs stand apart in the source and are kept apart here. Where a SMILES comes first, the peptide text is derived from it. Bridges are numbered along the chain shown (N, C = ends). Where no end group is shown, it is not given here. [ ]: non-standard residue; d: D form. The star is where a group is joined. X1 = CC[C@H](C)CCCCC(=O)*; Dab = NCC[C@H](N)C(=O)O

Legend:
[1] = tested on: SA113 (pTXgraRS); experiment: MIC assay, WT overexpressing graRS; format: cell-based, Staphylococcus aureus; settings: for MIC: SA113 (pTXgraRS), serial dilution, BM without glucose with 0.5% xylose as inductor, 37 °C, 20–24 h, mean of three to five independent experiments
Experimental: (§1) The overnight cultures were diluted in BM with 0.5% xylose to a concentration of 0.5 × 10^6 CFU per ml and aliquoted in 0.5-ml samples, and cationic agents in different concentrations were added.

[2] = tested on: dltA mutant; experiment: Effects of cationic agents on exponential growth, dltA mutant; format: cell-based, Staphylococcus aureus; settings: LP9 200 μg/ml, PMB 20 μg/ml, Gdm 8 μg/ml; for Susceptibility of growing culture (OD578nm): BM 37 °C, agent added at OD578nm 1.0, Lys or heat-inactivated Lys 300 μg/ml; for Resumption of growth in the presence of the CAMP: up to 24 h
Experimental: (§2) Overnight cultures were diluted to an OD578nm of 0.1 in 50 ml of BM and the cultures were incubated with shaking at 37 °C. OD was determined every hour. Ten milliliters of each culture were transferred into a new 100-ml flask when the cultures reached an OD578nm of nearly 1.0. Then, cationic agents, such as hen egg-white lysozyme and human lysozyme (Sigma-Aldrich, http://www.sigmaaldrich.com/), LP9 (a lysozyme-derived 9-aa peptide, 107R-A-W-V-A-W-R-N-R115–NH2) (EMC, http://www.microcollections.de/), polymyxin B (Sigma-Aldrich), gallidermin (Genmedics, http://www.genmedics.com/), or mutanolysin (Sigma), were added. Lysozyme was inactivated by heating for 1 h at 100 °C and placed on ice. The OD578nm of all cultures was measured hourly up to 7–8 h and after 24 h.

[3] = tested on: graRS mutant; experiment: Effects of cationic agents on exponential growth, graRS mutant; format: cell-based, Staphylococcus aureus; settings: PMB 20 μg/ml; for Susceptibility of growing culture (OD578nm) / Resumption of growth in the presence of the CAMP: graRS mutant, Gdm 8 μg/ml; for Susceptibility of growing culture (OD578nm): BM 37 °C, agent added at OD578nm 1.0, Lys or heat-inactivated Lys 300 μg/ml, LP9 200 μg/ml; for Resumption of growth in the presence of the CAMP: up to 24 h
Experimental: as §2

[4] = tested on: WT SA113; experiment: Effects of cationic agents on exponential growth, WT; format: cell-based, Staphylococcus aureus; settings: WT SA113, BM 37 °C, agent added at OD578nm 1.0; Lys or heat-inactivated Lys 300 μg/ml, LP9 200 μg/ml, PMB 20 μg/ml, Gdm 8 μg/ml
Experimental: as §2

[5] = tested on: oatA::kan/graRS::erm; experiment: MIC assay, oatA/graRS double mutant; format: cell-based, Staphylococcus aureus; settings: for MIC: oatA::kan/graRS::erm, serial dilution, BM without glucose with 0.5% xylose, 37 °C, 20–24 h, mean of three to five independent experiments
Experimental: as §1

[6] = tested on: SA113; format: cell-based, Staphylococcus aureus; settings: for MIC: SA113, serial dilution, BM without glucose with 0.5% xylose, 37 °C, 20–24 h, mean of three to five independent experiments
Experimental: as §1

[7] = tested on: dltA::spc; experiment: MIC assay, dltA mutant; format: cell-based, Staphylococcus aureus; settings: for MIC: dltA::spc, serial dilution, BM without glucose with 0.5% xylose, 37 °C, 20–24 h, mean of three to five independent experiments
Experimental: as §1

[8] = tested on: oatA::kan/dltA::spc; experiment: MIC assay, oatA/dltA double mutant; format: cell-based, Staphylococcus aureus; settings: for MIC: oatA::kan/dltA::spc, serial dilution, BM without glucose with 0.5% xylose, 37 °C, 20–24 h, mean of three to five independent experiments
Experimental: as §1

[9] = tested on: graRS::erm; experiment: MIC assay, graRS mutant; format: cell-based, Staphylococcus aureus; settings: for Susceptibility of graRS mutant relative to WT: from MIC values; for MIC: graRS::erm, serial dilution, BM without glucose with 0.5% xylose, 37 °C, 20–24 h, mean of three to five independent experiments
Experimental: as §1

[10] = tested on: oatA::kan; experiment: MIC assay, oatA mutant; format: cell-based, Staphylococcus aureus; settings: serial dilution, BM without glucose with 0.5% xylose, 37 °C, 20–24 h, mean of three to five independent experiments
Experimental: as §1

[11] = tested on: graRS::erm (pTXgraRS); experiment: MIC assay, complemented graRS mutant; format: cell-based, Staphylococcus aureus; settings: for MIC: graRS::erm (pTXgraRS), serial dilution, BM without glucose with 0.5% xylose as inductor, 37 °C, 20–24 h, mean of three to five independent experiments
Experimental: as §1

[12] = tested on: oatA/graRS mutant; experiment: Effects of cationic agents on exponential growth, oatA/graRS mutant; format: cell-based, Staphylococcus aureus; settings: BM 37 °C, agent added at OD578nm 1.0, Lys 50 μg/ml, heat-inactivated Lys 300 μg/ml, LP9 200 μg/ml
Experimental: as §2

[13] = tested on: oatA mutant; experiment: Effects of cationic agents on exponential growth, oatA mutant; format: cell-based, Staphylococcus aureus; settings: BM 37 °C, agent added at OD578nm 1.0, Lys or heat-inactivated Lys 300 μg/ml, LP9 200 μg/ml
Experimental: as §2

[14] = tested on: PG isolated from oatA mutant; experiment: Turbidometric assay of PG, oatA mutant; format: biochemical, Staphylococcus aureus; settings: PG of oatA mutant 0.5 mg/ml, 300 μg/ml, 80 mM PBS pH 6.4, 4 h
Experimental: (§3) One liter of BM was inoculated with an overnight culture of the WT SA113 or the mutants. Strains were grown for 12 h with shaking at 37 °C. Cells were centrifuged, washed two times with cold 0.9% NaCl, diluted in 0.9% NaCl, and boiled for 20 min. After the cells were chilled on ice, they were again centrifuged and washed twice with 0.9% NaCl. The cells were disrupted in a mechanical grinding device using glass beads ∅150–212 μm (Sigma-Aldrich) at 4 °C, centrifuged and washed two times with cold H2Obidest, boiled for 30 min in 2% SDS to remove noncovalently bound proteins, and washed four times with H2Obidest. The cell wall fragments were diluted in 0.1 M Tris/HCl (pH 6.8) and incubated with 0.5 mg/ml trypsin for 16 h at 37 °C to degrade cell-bound proteins. After centrifugation and washing with water, the PG was lyophilized.
(§4) For analyzing the susceptibility of PG to lysozyme, we used a modified method turbidometric assay as described by Clarke. The PG of the WT SA113 and the mutants were sonicated and diluted to 0.5 mg in 1 ml of 80 mM PBS (pH 6.4). After the addition of 300 μg lysozyme per ml, the decrease in optical density was monitored at the beginning (0 h) and after 4 h at OD660nm and calculated as percentages.

[15] = tested on: oatA/dltA mutant; experiment: Effects of cationic agents on exponential growth, oatA/dltA mutant; format: cell-based, Staphylococcus aureus; settings: BM 37 °C, agent added at OD578nm 1.0, Lys 20 μg/ml, LP9 200 μg/ml
Experimental: as §2

[16] = tested on: PG isolated from dltA mutant; experiment: Turbidometric assay of PG, dltA mutant; format: biochemical, Staphylococcus aureus; settings: PG of dltA mutant 0.5 mg/ml, 300 μg lysozyme per ml, 80 mM PBS pH 6.4, 4 h
Experimental: as §3, §4

[17] = tested on: PG isolated from oatA/graRS double mutant; experiment: Turbidometric assay of PG, oatA/graRS mutant; format: biochemical, Staphylococcus aureus; settings: PG of oatA/graRS double mutant 0.5 mg/ml, 300 μg lysozyme per ml, 80 mM PBS pH 6.4, 4 h
Experimental: as §3, §4

[18] = tested on: PG isolated from graRS mutant; experiment: Turbidometric assay of PG, graRS mutant; format: biochemical, Staphylococcus aureus; settings: PG of graRS mutant 0.5 mg/ml, 300 μg lysozyme per ml, 80 mM PBS pH 6.4, 4 h
Experimental: as §3, §4

Compound | MIC [1] | Susceptibility of growing culture (OD578nm) [2] | Resumption of growth in the presence of the CAMP [2] | Susceptibility of growing culture (OD578nm) [3] | Resumption of growth in the presence of the CAMP [3] | Susceptibility of growing culture (OD578nm) [4] | MIC [5] | MIC ([6]; 0.5 × 10^6 CFU per ml) | MIC [6] | MIC [7] | MIC [8] | Susceptibility of graRS mutant relative to WT [9] | MIC [9] | MIC [10] | MIC [11] | Susceptibility of growing culture (OD578nm) [12] | Susceptibility of growing culture (OD578nm) [13] | Hydrolysis of isolated PG (decrease in OD660nm) [14] | further results
CC[C@H](C)CCCCC(=O)N[C@@H](CCN)C(=O)N[C@H](C(=O)N[C@@H](CCN)C(=O)N[C@H]1CCNC(=O)[C@H]([C@@H](C)O)NC(=O)[C@H](CCN)NC(=O)[C@H](CCN)NC(=O)[C@H](CC(C)C)NC(=O)[C@@H](Cc2ccccc2)NC(=O)[C@H](CCN)NC1=O)[C@@H](C)O [Polymyxin B, polymyxin B] (X1-[Dab]T[Dab][Dab][Dab][dF]L[Dab][Dab]T; lactam 4-C (inferred); N-terminus assumed) | >500 µg/mL | more susceptible | unable to resume growth | immediate growth arrest | started to grow after some time | much less affected | 25 μg/ml and 18 μM | 350 µg/mL | 252.5 µM | 10 μg/ml and 7.2 μM | 10 μg/ml and 7.2 μM | 17 fold | 20 μg/ml and 14.4 μM | 350 μg/ml and 252.5 μM | >800 µg/mL | – | – | – | Increase in resistance by overexpression of graRS (pTXgraRS) in the WT ([1]; from MIC values): approximately 2 fold; Growth of subculture challenged again ([3]; new culture inoculated from 24-h graRS culture treated with polymyxin B): no growth retardation; Increase in resistance by overexpression of graRS (pTXgraRS) in the graRS mutant ([11]; from MIC values): approximately 2 fold
Heat-inactivated lysozyme: Catalytic inactive lysozyme, inactivated by heating for 1 h at 100 °C | – | inhibited | – | does not affect | – | completely insensitive | – | – | – | – | – | – | – | – | – | able to inhibit the growth | no activity | no activity | –
Lysozyme | >50,000 μg/ml | more sensitive | – | only marginally affected | – | completely lysozyme resistant | 600 μg/ml and 41.6 μM | >50,000 μg/ml | – | 2,000 μg/ml and 138.8 μM | 30 μg/ml and 2.08 μM | – | >50,000 μg/ml | 10,000 μg/ml and 694 μM | >50,000 μg/ml | highly susceptible | only marginally affected | sensitive to the muramidase activity | Sensitivity of oatA/graRS double mutant relative to oatA mutant ([5]; from MIC values): ~17 fold; Resistance at highest concentration ([6]; WT, at a concentration of 50 mg/ml): completely resistant; Sensitivity of dltA single mutant relative to WT ([7]; from MIC values): over 25 fold; Sensitivity of dltA single mutant relative to oatA single mutant ([7]; from MIC values): 5 fold; Susceptibility of growing culture (OD578nm) [15]: stays lysozyme sensitive even after 24 h; Sensitivity of oatA/dltA double mutant relative to oatA single mutant ([8]; from MIC values): > 333 fold and 333 fold; Sensitivity of oatA/dltA double mutant relative to oatA/graRS double mutant ([8]; from MIC values): 20 fold; Hydrolysis of isolated PG (decrease in OD660nm) [16]: not hydrolyzed; Resistance at highest concentration ([9]; graRS mutant, at a concentration of 50 mg/ml): completely resistant; Hydrolysis of isolated PG (decrease in OD660nm) [17]: hydrolysed; Hydrolysis of isolated PG (decrease in OD660nm) [18]: completely resistant
gallidermin (IASKFLCTPGCAKTGSFNSYCC; cysteine pairing not given here; also: lantibiotic; UniProt P21838 31-52, looked up) [lantibiotic, CAMP (Genmedics)] | 9 μg/ml and 4.1 μM | more susceptible | unable to resume growth | immediate growth arrest | started to grow after some time | inhibited the WT | 3 μg/ml and 1.36 μM | 9 µg/mL | 4.1 µM | 1.2 μg/ml and 0.55 μM | 1.2 μg/ml and 0.55 μM | 4 fold | 2.5 μg/ml and 1.14 μM | 9 μg/ml and 4.1 μM | 9 μg/ml and 4.1 μM | – | – | – | –
